Data from US6242428A, “Nucleoside analogs and uses in treating Plasmodium falciparum infection” (Unisearch Limited, priority 1998, dated 2001).
Entries after “also recorded” stand apart in the source; their conditions may differ. Where two headings read alike, the source gives them in different places.

Tests used:
P. falciparum = assay: In vitro toxicity against P. falciparum in culture (radiolabelled hypoxanthine incorporation / lactate dehydrogenase assay); type: cell-based, Plasmodium falciparum, FCQ27; conditions: for toxicity against P. falciparum, in words: statement in the transport and metabolism study
Method: P. falciparum, FCQ27, was maintained in culture using the techniques described by Trager & Jensen (W. Traqer and J. B. Jensen, Science, 193 673-675 (1976)). Cultures containing 2% hematocrit suspensions of parasitized human type O^+ erythrocytes in RPMI 1640 medium, supplemented with 25 mM HEPES-KOH, pH 7.2, 25 mM NaHCO3 and 10% human type O^+ serum (v/v) are maintained in modular incubator chambers at 37° C. in a gas mixture of 5% O2, 5% CO2 and 90% N2. The isolate of P. falciparum used in these experiments was FCQ27, routinely maintained in synchronized or asynchronous in vitro cultures at low hematocrit.
The potential toxicity of nucleoside analogues against P. falciparum in culture was tested in microtitre plates over the range of drug concentrations for 24 hours. The procedures for monitoring parasite viability is well established (A. M. Gero, H. V. Scott, W. J. O'Sullivan and R. I. Christopherson, Mol. Biochem. Parasitol. 34, 87-89 (1989)) and is based on radiolabelled hypoxanthine or isoleucine incorporation. The incorporation of [G-^3 H]hypoxanthine into the nucleic acids of P. falciparum was used to assess the viability of the parasite in vitro. Microculture plates were prepared with each well containing 225 μl of a 2% hematocrit culture of asynchronous parasited erythrocytes (1% parasitized cells). Each plate, containing varying concentrations of the drug to be studied (up to 200 μM final concentration for initial screen), was incubated for 24 h at 37° C. in a gas mixture of 5% O2, 5% CO2 and 90% N2, at which point [G-^3 H] hypoxanthine was added to each well and the incubation continued under identical conditions for a further 18-20 h. The control infected cells (i.e. without drug), routinely reached a parasitemia of 6-8% before harvesting. Expediency was aided by 96-well plate counter using lactate dehydrogenase for the drug susceptibility assay (L. K. Basco, F. Marguet, M. T. Makler and J. Lebbras, Exp. Parasitol. 80, 260-271 (1995); M. T. Makler and D. J. Hinrichs; Am. J. Trop. Med. Hyg. 48, 205-210 (1993)). This assay gave the identical results to the hypoxanthine technique. In addition, for each experiment, microscopic counting of Giemsa stained thin slides was used as a control.
The biological screen involved evaluation of the compounds against the protozoan P. falciparum in in vitro culture. The range of drug concentrations was used independently by two assays. One, radiolabelled hypoxanthine incorporation into the nucleic acid of P. falciparum, and the other, more expedient assay, a 96-well plate susceptibility assay using lactate dehydrogenase. Both assays gave identical results. In addition, microscopic counting of Giemsa stained thin slides was used as a control. Examples of experimental curves are attached as Appendix 2. The biological tests were done at several concentrations. The highest concentration was 200 μM, the compounds were considered active at concentrations less than 40 μM.

[1] = test system: P. falciparum infected erythrocytes (trophozoites); type: in vitro ADME, human erythrocytes infected with Plasmodium falciparum
Method: The metabolism of the L-nucleoside conjugates was studied by HPLC analysis. The primary aim was to determine their ability to be catabolized by parasite purine salvage enzymes. Some effect on the purine metabolic pools was also observed.
For each HPLC determination 200 μL of packed cells of 80-90% trophozoite infected cells were used. These were isolated from in vitro cultures by synchronization of the parasites in in vitro cultures using sterile D-sorbitol (L. Lambros and J. P. Vanderberg, Parasitol. 65, 418-420 (1979)) followed by separation of the trophozoites from non infected erythrocytes by Percoll gradients as described previously (A. M. Gero, H. V. Scott, W. J. O'Sullivan and R. I. Christopherson, Mol. Biochem. Parasitol. 34, 87-89 (1989)). Trophozoites were incubated at 37° C. for 2 hours with each compound to be tested. Compounds were incubated with both whole infected cells as whole and lyzed uninfected normal erythrocytes to determine:
a) entry to the cell (whether they were transported);
Drug incubation was terminated by centrifugation through silicon oil using the method of Upston and Gero (J. M. Upston and A. M. Gero, Biochem. Biophys. Acta. 1236, 249-258 (1995)). This procedure separated intact trophozoites from extracellular non-transported drug solution.
The metabolism of nucleosides with potential chemotherapeutic activity was assessed by the analysis of cytoplasmic samples by reverse phase ion-pair high performance liquid chromatography (R. S. Toguzov, Y. V. Tikhonov, A. M. Pimenov, V. Prokudin, Journal of Chromatography, I. Biomedical Appl. 434, 447-453 (1988)). Nucleotides, nucleosides and bases were separated by this HPLC method.
It has been established that transport and uptake in parasite invaded cells is different from that of normal blood erythrocytes (A. M. Gero & A. M. Wood, In: Pyrine & Pyrimidine Methabolism in Man VII, Part A. (R. A. Harkness et al., Eds) Plenum Press, NY, 169-172 (1991)). Invasion by the malaria parasite comprises the cell membrane, allowing penetration of unnatural substances of various size and shape, whereas normal cells are very selective in uptake. It was shown that L-nucleosides and their derivatives easily penetrate invaded cells, while they have a very slow rate of uptake into normal cells, if they enter at all. In order to obtain preliminary data on transport, uptake and metabolism, the HPLC method was used to analyze the following 10 Lipitek compounds: L-101, L-103, L-109, L-111, L-117, L-133, L-138, GCl 1007, GCl 1027, GCl 1069.
These compounds were chosen for the identification of possible metabolites. In this experiment the compounds were incubated with both whole infected cells, and with whole and lysed uninfected cells, followed by the separation of unreacted compound and HPLC analysis.

[2] = Table 1, 24 h drug exposure, up to 200 μM, read-out: IC50
[3] = Plasmodium falciparum, 24 h, Table 1, 24 h drug exposure, up to 200 μM, read-out: IC50
[4] = Plasmodium falciparum, Table 2, FUdR linkage position 5', read-out: IC50
[5] = Plasmodium falciparum, Table 3, α-L configuration of the L-nucleoside, read-out: IC50
[6] = Plasmodium falciparum, Table 5, β-D-FUdR and possible metabolic products, read-out: IC50

## β-D-FUdR 5'SATE [B02]
P. falciparum; [2]
  IC50: 60 µM

## Nc1ncnc2c1ncn2[C@@H]1C[C@@H](OP(O)(=S)OC[C@H]2O[C@@H](n3cc(F)c(=O)[nH]c3=O)C[C@@H]2O)[C@H](CO)O1 (stereo partly drawn) [L-138-thio, β-L-dA, β-D-FUdR, S = P-O]
P. falciparum
  In vitro activity against P. falciparum, in words: reduced dramatically
P. falciparum; Plasmodium falciparum, 24 h
  IC50: 100 µM

## Nc1ncnc2c1ncn2[C@@H]1C[C@@H](O)[C@H](CO)O1 [GCI 1036, β-L-Da]
P. falciparum; [3]
  IC50: > 200 µM

## O=[N+]([O-])c1ccc(CSc2ncnc3c2ncn3[C@@H]2O[C@H](CO)[C@@H](O)[C@H]2O)cc1 [NBMPR, nitrobenzylthionosine, reference compound]
P. falciparum; [3]
  IC50: 100 µM

## β-L-FUdR 5'SATE [B04]
P. falciparum; [2]
  IC50: 200 µM

## Nc1ncnc2c1ncn2[C@@H]1CC[C@H](CO)O1 [GCI 1077, β-L-ddA]
P. falciparum; [3]
  IC50: > 200 µM

## Nc1ccn([C@@H]2C[C@@H](OP(=O)(O)OC[C@H]3O[C@@H](n4cc(F)c(=O)[nH]c4=O)C[C@@H]3O)[C@H](CO)O2)c(=O)n1 [L-113]
P. falciparum; [3]
  IC50: 17 µM
P. falciparum; [4]
  IC50: 17 µM
P. falciparum; Plasmodium falciparum, Table 3, β-L configuration of the L-nucleoside, read-out: IC50
  IC50: 17 µM

## β-D-FUdR 3'SATE [B01]
P. falciparum; [2]
  IC50: 100 µM

## Nc1ncnc2c1ncn2[C@H]1CC[C@H](CO)O1 [GCI 1079, α-L-ddA]
P. falciparum; [3]
  IC50: > 200 µM

## O=c1[nH]c(=O)n([C@H]2C[C@@H](OP(O)(=S)OC[C@H]3O[C@@H](n4cc(F)c(=O)[nH]c4=O)C[C@@H]3O)[C@H](CO)O2)cc1F (stereo partly drawn) [L-103 thio, [α-L,β-D]-FUdR, S = P-O]
P. falciparum
  In vitro activity against P. falciparum, in words: reduced dramatically
P. falciparum; Plasmodium falciparum
  IC50: > 200 µM
P. falciparum; Plasmodium falciparum, 24 h
  IC50: > 200 µM

## α-L-dT, NBMPR [L-146]
P. falciparum; [2]
  IC50: > 200 µM

## α-L-FUdR 5'SATE [B06]
P. falciparum; [2]
  IC50: 150 µM

## Nc1nc2c(ncn2[C@@H]2C[C@@H](O)[C@H](CO)O2)c(=O)[nH]1 [GCI 1070, β-L-dG]
P. falciparum; [3]
  IC50: > 200 µM

## O=c1[nH]c(=O)n([C@H]2C[C@@H](OP(=O)(O)OC[C@H]3O[C@@H](n4cc(F)c(=O)[nH]c4=O)C[C@@H]3O)[C@H](CO)O2)cc1F [L-103]
P. falciparum; [3]
  IC50: 20 µM
P. falciparum; [4]
  IC50: 20 µM
P. falciparum; [5]
  IC50: 20 µM
P. falciparum; Plasmodium falciparum, Table 4, Phosphate "bridge" O=P--O, read-out: IC50
  IC50: 20 µM
P. falciparum
  toxicity against P. falciparum, in words: toxic against P. falciparum
[1]
  entry to the infected cell: entered the infected cells

## Nc1ncnc2c1ncn2[C@@H]1O[C@@H](CO)[C@H](O)[C@H]1O [GCI 1018, α-L-arabinofuranosyl adenine]
P. falciparum; Plasmodium falciparum, 24 h
  IC50: > 200 µM

## O=c1[nH]c(=O)n([C@H]2C[C@H](OP(O)(=S)OC[C@H]3O[C@@H](n4cc(F)c(=O)[nH]c4=O)C[C@@H]3O)[C@@H](CO)O2)cc1F (stereo partly drawn) [L-128, β-D, β-D-FUdR] S = P-O]
P. falciparum
  In vitro activity against P. falciparum, in words: only active phosphorothioate analog; also recorded: greater in comparison with all possible products of hydrolysis; also recorded: most active compound tested
P. falciparum; L-128 versus L-101
  factor of increase in activity on replacing phosphate by phosphorothioate: 10
P. falciparum; Plasmodium falciparum
  IC50: 1.5 µM
P. falciparum; Plasmodium falciparum, 24 h
  IC50: 1.5 µM

## O=c1[nH]c(=O)n([C@H]2C[C@H](O)[C@@H](CO)O2)cc1F [β-D-FUdR, β-D-5-fluoro-2'-deoxyuridine, reference compound]
P. falciparum; [6]
  IC50: 34 µM

## O=c1[nH]cnc2c1ncn2[C@H]1O[C@@H](CO)[C@H](O)[C@@H]1O [GCI 1033, β-L-I]
P. falciparum; [3]
  IC50: > 200 µM

## O=c1[nH]c(=O)n([C@H]2C[C@H](O)[C@@H](COP(=O)(O)O)O2)cc1F [β-D-5'-FUdRmP, β-D-FUdR monophosphate, reference compound]
P. falciparum; [6]
  IC50: 50 µM

## Nc1ncnc2c1ncn2[C@@H]1O[C@@H](CO)[C@H](O)[C@@H]1O [GCI 1066, α-L-A]
P. falciparum; Plasmodium falciparum, 24 h
  IC50: > 200 µM

## O=c1[nH]cnc2c1ncn2[C@@H]1C[C@@H](O)[C@H](CO)O1 [GCI 1037, β-L-dI]
P. falciparum; [3]
  IC50: > 200 µM

## Nc1ncnc2c1ncn2[C@H]1C[C@@H](O)[C@H](CO)O1 [GCI 1069, α-L-dA]
P. falciparum; [3]
  IC50: > 200 µM
P. falciparum
  toxicity against P. falciparum, in words: toxic against P. falciparum
[1]
  entry to the infected cell: entered the infected cells

## β-L-dU, NBMPR [L-145]
P. falciparum; [2]
  IC50: > 200 µM

## CNc1ncnc2c1ncn2[C@H]1O[C@@H](CO)[C@H](O)[C@@H]1O [GCI 1085, N^6 -methyl-β-L-A]
P. falciparum; [3]
  IC50: > 200 µM

## O=c1[nH]c(=O)n([C@@H]2C[C@@H](O)[C@H](CO)O2)cc1F [β-L-FUdR, β-L-5-fluoro-2'-deoxyuridine]
P. falciparum; Plasmodium falciparum, Erythrocyte, 24 h, Table 6, SATE derivatives of FUdR, read-out: ID50 (the source's name)
  IC50: > 200 µM

## O=c1[nH]cc(F)c(=O)[nH]1 [5FUracil, 5-fluorouracil, reference compound]
P. falciparum; Plasmodium falciparum
  IC50: 6 µM

## O=c1ccn([C@@H]2C[C@@H](OP(O)(=S)OC[C@H]3O[C@@H](n4cc(F)c(=O)[nH]c4=O)C[C@@H]3O)[C@H](CO)O2)c(=O)[nH]1 (stereo partly drawn) [L-117 thio, β-L-dU, β-D-FUdR S = P-O]
P. falciparum
  In vitro activity against P. falciparum, in words: reduced dramatically
P. falciparum; Plasmodium falciparum
  IC50: > 200 µM
P. falciparum; Plasmodium falciparum, 24 h
  IC50: > 200 µM

## β-D-FUdR 3'-5'SATE [B03]
P. falciparum; [2]
  IC50: 6 µM

## β-D-FUdR, β-L-A [L-144]
P. falciparum; [2]
  IC50: 140 µM
P. falciparum; Table 2, FUdR linkage position 3', read-out: IC50
  IC50: 140 µM

## 6-thio-β-L-purine [GCI 1076]
P. falciparum; [2]
  IC50: > 200 µM

## Nc1nc2c(ncn2[C@H]2O[C@@H](CO)[C@H](O)[C@@H]2O)c(=O)[nH]1 [GCI 1030, β-L-G]
P. falciparum; [3]
  IC50: > 200 µM

## β-L-mercapto-G [GCI 1034]
P. falciparum; [2]
  IC50: > 200 µM

## Nc1ncnc2c1ncn2[C@H]1C[C@@H](OP(=O)(O)OC[C@H]2O[C@@H](n3cc(F)c(=O)[nH]c3=O)C[C@@H]2O)[C@H](CO)O1 [L-125, α-L-dA, β-D-FUdR]
P. falciparum
  In vitro activity against P. falciparum, in words: reduces the dimer activity in comparison with dimers containing the β-L unit
P. falciparum; [3]
  IC50: 60 µM
P. falciparum; [4]
  IC50: 60 µM
P. falciparum; [5]
  IC50: 60 µM
